Assay results as given in patent EP0279458A1, “2-Propyl amine derivatives, processes for their preparation and their use” (GÖDECKE AKTIENGESELLSCHAFT, priority 1987, dated 1988).
Counter-ions that a name gives are not always drawn.

Tested on: Proteinkinase C (PKC)
Experiment: Inhibition of PS/DO-mediated protein kinase C activity (32P incorporation into histone H-1)
Type: biochemical, Hühner
Text: Zur Klärung des hemmenden Einflusses der erfindungsgemäßen Verbindungen der allgemeinen Formel I auf die Calcium- und Phospholipid-abhängige Proteinkinase (PKC) wurde diese Enzymaktivität ausgehend von einem Hühnermagenextrakt angereichert. In Anlehnung an in der Literatur beschriebene Reinigungsschritte (J. Biol. Chem. 260, S. 15718-15722, 1985) wurde bei der aus 2 Schritten bestehenden Reinigung die Eigenschaft des Enzyms ausgenutzt, in Anwesenheit von Calcium an Zellmembranen zu binden und durch Calciumchelatoren (EGTA) wieder abgelöst zu werden. Beim 1. Anreicherungsschritt erfolgte die Bindung der PKC an Membranen des Hühnermagenextraktes und im 2. Schritt an sogenannte Inside/Out-Vesikel von Erythrozyten. Nach Ablösung von den Erythrozyten-Membranen und Umpufferung lag die PKC-Präparation in 10 mM HEPES, 1 mM DTT, 0,1% PEG 20000, pH 7,5 vor und konnte unter diesen Bedingungen bei -70°C für mehrere Monate ohne Aktivitätsverlust gelagert werden.
Die Aktivität des Enzyms wurde über den Einbau von Phosphor-32-markiertem Phosphat in das durch PKC phosphorylierbare Protein Histon H-1 bestimmt. Der Test enthält dabei folgende Kumponenten: 50 mM HEPES (pH 7,5), 1 mM DTT, 5 mM MgCl₂, ca. 10 µM freies Ca²⁺, 200 µg/ml Histon, 5 µg/ml Phosphatidylserin, 1 µg/ml 1,2-Diolein, 10 µM ATP, eine jeweils geeignete Menge der PKC-Präparation und gegebenenfalls eine Testsubstanz. Die unter Standardbedingungen gemessene Kinase-Aktivität in Anwesenheit von PKC-Aktivatoren (und ohne Testsubstanz) wurde jeweils als 100% gesetzt und die Hemmwirkung der Verbindungen der allgemeinen Formel I prozentual darauf bezogen.
In Tabelle I ist die Inhibierung von PS/DO [PS: Phosphatidylserin, DO: 1,2-Diolein] vermittelter Proteinkinase C-Aktivität angegeben.

SMILES | Inhibierung der PS/ DO-vermittelten PKC-Aktivität (%) (konz. 1x10^-5 mol/l, 10 µM) | Inhibierung der PS/ DO-vermittelten PKC-Aktivität (%) (konz. 1x10^-4 mol/l, 100 µM) | Inhibierung der PS/ DO-vermittelten PKC-Aktivität (%) (konz. 1x10^-6 mol/l)
CCCCCCCCCCCCCCCCCCOCC(COC(C)=O)N(C)C (racemic) [Beispiel 1, (±)-2-Dimethylamino-3-octadecyloxy-1-propylacetat · Hydrochlorid] | 28 |  | 
CCCCCCCCCCCCCCCCCCOCC(CO)NCC (racemic) [Beispiel 2, (±)-2-Ethylamino-octadecyloxy-1-propanol · Hydrochlorid] | 91 | 99 | 23
CCCCCCCCCCCCCCCCCCOCC(COC(=O)c1ccccc1)[N+](C)(C)C (racemic) [Beispiel 4, (±)-1-Benzoyloxy-3-octadecyloxy-2-propyl-trimethylammoniumjodid] | 90 | 104 | 21
CCCCCCCCCCCCCCCCCCSCC(N)CO (racemic) [Beispiel 5, (±)-2-Amino-3-octadecylthio-1-propanol] | 39 |  | 12
CCCCCCCCCCCCCCCCCCOCC(N)CO (racemic) [Beispiel 6, (±)-2-Amino-3-octadecyloxy-1-propanol, reference compound] | 69 |  | 11

The next lines start with the values.

Inhibierung der PS/ DO-vermittelten PKC-Aktivität (%) (konz. 1x10^-5 mol/l, 10 µM) | Inhibierung der PS/ DO-vermittelten PKC-Aktivität (%) (konz. 1x10^-4 mol/l, 100 µM) | Inhibierung der PS/ DO-vermittelten PKC-Aktivität (%) (konz. 1x10^-6 mol/l) | SMILES
23 |  |  | CCCCCCCCCCCCCCCCOCC(COC(C)=O)N(C)C (racemic) [Beispiel 1a, (±)-2-Dimethylamino-3-hexadecyloxy-1-propylacetat Oxalat]
36 |  |  | CCCCCCCCCCCCCCOCC(COC(C)=O)N(C)C (racemic) [Beispiel 1b, (±)-2-Dimethylamino-3-tetradecyloxy-1-propylacetat Oxalat]
78 | 100 | 11 | CCCCCCCCCCCCCCCCCCOCC(CO)N(CC)CC.O=C(O)C(=O)O (racemic) [Beispiel 2a, (±)-2-Diethylamino-3-octadecyloxy-1-propanol Oxalat]
